The source of these data is ChEMBL document CHEMBL1141263, “Sesquiterpenoids and cytotoxic lignans from the bark of Libocedrus chevalieri” (J Nat Prod, 2007).

Test [1] in a line: Inhibition of tubulin polymerization.
For another test, the system named is KB. The test is described as follows: Cytotoxicity against human KB cells by microculture tetrazolium assay. The test is classed as functional, cell-based.
The subject of another test is L1210. The test is described as follows: Cytotoxicity against mouse L1210 cells by microculture tetrazolium assay. The test is classed as functional, cell-based.

SMILES strings stand for the structures. pIC50: −log10 of the molar value.

The term pIC50 denotes the IC50 on a negative log10 scale, so that one unit is a factor of ten. Low values mean a large IC50, high ones a small IC50. With `COc1cc([C@@H]2c3cc4c(c(OC)c3[C@H](O)[C@H]3COC(=O)[C@H]23)OCO4)cc(OC)c1OC`, the pIC50 was 5.30 in test [1] and 7.96 in the test with KB.

With `COc1cc([C@@H]2c3cc4c(c(OC)c3[C@@H](O)[C@H]3COC(=O)[C@H]23)OCO4)cc(OC)c1OC`, the pIC50 is 4.09 with L1210, 5.05 in test [1] and 7.35 with KB.
